Data set [1] is described as follows: DPPH* radical antioxidant test of plant extracts. The settings on record: DPPH* assay, reference; read-out: EC50 of Vitamin E. The format is biochemical.
Data set [2] can be described thus: Photobleaching of lycopenes in mineral oil. The format is physicochemical. The settings on record: 0.1% in Mineral Oil, visible light and oxygen, FIG. 1. An excerpt:
FIG. 1A is a graph illustrating the effects of photobleaching of lycopenes dissolved in mineral oil, over time.
The principal plant actives under development are the hydrophobic plant actives derived from carrot extracts (carotenes) and tomato paste (lycopenes). Both actives are known anti-cancer agents and regulators of epithelial homeostasis. Their role in epidermopoeisis and skin care is still under investigation. For both materials, extracts have been prepared and enriched by sequential extraction with ethyl alcohol and organic solvents. These extracts are then dried to a powder form and solubilized in Mineral Oil. A clear necessity for the preparation of such formulations is to prevent the photo-bleaching that occurs in mineral oil solutions exposed to visible light and oxygen This may typically be accomplished by addition of mineral oil solutions of Vitamin E (0.1%). […] Similar results have been obtained with the addition of Vitamin E to prevent the photo-bleaching of carotenes derived from Carrot Extracts.

The text below walks through data of patent US20050048020A1, “Novel topical delivery system for plant derived anti-irritants” (priority 2003, published 2005).

As usually defined, the EC50 is the concentration at which the effect is half-maximal.

For the substance Tocopherol [Vitamin E], the EC50 in data set [1] came out at 46 µM. Also, in data set [2], the “effect on photo-bleaching of lycopenes” value is listed as “photo-protective effect”.
